Test results: PubChem BioAssay AID328 (DTP/NCI, 2004)
Where “and” joins values, the source holds several entries; their conditions need not be identical. Equal entries are not always repeated. Toxic doses and inconclusive results are not listed. Residues, ends and D or L forms follow the SMILES beside them. *: point of attachment. Trt = c1ccc(C(c2ccccc2)(c2ccccc2)*)cc1; Bn = c1ccc(C*)cc1

System: BDF1 mice, P388 leukemia ip, median survival T/C
Experiment: NCI In Vivo Anticancer Drug Screen. Data for tumor model P388 Leukemia (intraperitoneal) in B6D2F1 (BDF1) mice
Conditions: endpoint: median survival time, higher = longer survival
How it was run: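 T/C = treated-group survival ÷ vehicle-control survival; tumour transplanted into mice before dosing.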

[1] = dose: 12.5 mg/kg/injection, schedule: Q01DX009 (ip), vehicle: saline with Tween-80
[2] = dose: 25.0 mg/kg/injection, schedule: Q01DX009 (ip), vehicle: saline with Tween-80
[3] = dose: 25.0 mg/kg/injection, schedule: Q04DX003 (ip), vehicle: saline with Tween-80
[4] = dose: 50.0 mg/kg/injection, schedule: Q01DX009 (ip), vehicle: saline with Tween-80
[5] = dose: 50.0 mg/kg/injection, schedule: Q04DX003 (ip), vehicle: saline with Tween-80
[6] = dose: 100.0 mg/kg/injection, schedule: Q01DX009 (ip), vehicle: saline with Tween-80
[7] = dose: 100.0 mg/kg/injection, schedule: Q04DX003 (ip), vehicle: saline with Tween-80
[8] = dose: 200.0 mg/kg/injection, schedule: Q01DX009 (ip), vehicle: saline with Tween-80
[9] = dose: 200.0 mg/kg/injection, schedule: Q04DX003 (ip), vehicle: saline with Tween-80
[10] = dose: 100.0 mg/kg/injection, schedule: Q04DX003 (ip), vehicle: saline sonified
[11] = dose: 400.0 mg/kg/injection, schedule: Q04DX003 (ip), vehicle: saline sonified
[12] = dose: 400.0 mg/kg/injection, schedule: Q04DX003 (ip), vehicle: saline with Tween-80
[13] = dose: 25.0 mg/kg/injection, schedule: Q01DX009 (ip), vehicle: Klucel (hydroxypropylcellulose) (HPC)
[14] = dose: 50.0 mg/kg/injection, schedule: Q01DX009 (ip), vehicle: Klucel (hydroxypropylcellulose) (HPC)
[15] = dose: 100.0 mg/kg/injection, schedule: Q01DX009 (ip), vehicle: Klucel (hydroxypropylcellulose) (HPC)

## O=Cc1nccn1Cc1ccccc1
[1]
  T/C: 116 % of control
dose: 12.5 mg/kg/injection, schedule: Q04DX003 (ip), vehicle: saline with Tween-80
  T/C: 100 % of control
[2]
  T/C: 100 % of control
[3]
  T/C: 103 % of control
[4]
  T/C: 108 % of control
[5]
  T/C: 96 % of control
[6]
  T/C: 105 % of control
[7]
  T/C: 106 % of control
[8]
  T/C: 98 % of control
[9]
  T/C: 101 % of control and 106 % of control
dose: 300.0 mg/kg/injection, schedule: Q04DX003 (ip), vehicle: saline with Tween-80
  T/C: 103 % of control
dose: 400.0 mg/kg/injection, schedule: Q01DX009 (ip), vehicle: saline with Tween-80
  T/C: 107 % of control

## Nc1nc(SCc2ccccc2)c2ncn(C3OC(CO)CC3O)c2n1 (stereo not drawn)
dose: 100.0 mg/kg/injection, schedule: Q01DX009 (ip), vehicle: saline sonified
  T/C: 100 % of control
[10]
  T/C: 109 % of control
dose: 200.0 mg/kg/injection, schedule: Q01DX009 (ip), vehicle: saline sonified
  T/C: 100 % of control
dose: 200.0 mg/kg/injection, schedule: Q04DX003 (ip), vehicle: saline sonified
  T/C: 109 % of control
dose: 400.0 mg/kg/injection, schedule: Q01DX009 (ip), vehicle: saline sonified
  T/C: 113 % of control
[11]
  T/C: 109 % of control

## CN(C)C(=S)N=Nc1c(O)[nH]c2ccccc12
dose: 1.56 mg/kg/injection, schedule: Q01DX009 (ip), vehicle: saline with Tween-80
  T/C: 109 % of control
dose: 3.13 mg/kg/injection, schedule: Q01DX009 (ip), vehicle: saline with Tween-80
  T/C: 100 % of control
dose: 6.25 mg/kg/injection, schedule: Q01DX009 (ip), vehicle: saline with Tween-80
  T/C: 100 % of control
[1]
  T/C: 92 % of control
[3]
  T/C: 105 % of control
[5]
  T/C: 100 % of control
[10]
  T/C: 90 % of control
[7]
  T/C: 100 % of control
[11]
  T/C: 90 % of control

## CC1(C(=O)N2CC2)OC1c1ccccc1 (stereo not drawn)
dose: 25.0 mg/kg/injection, schedule: Q04DX002 (ip), vehicle: saline with Tween-80
  T/C: 91 % of control
dose: 50.0 mg/kg/injection, schedule: Q04DX002 (ip), vehicle: saline with Tween-80
  T/C: 98 % of control
dose: 100.0 mg/kg/injection, schedule: Q04DX002 (ip), vehicle: saline with Tween-80
  T/C: 96 % of control and 100 % of control

## Cc1ncc([N+](=O)[O-])n1CCN/C=C/C#N
[7]
  T/C: 111 % of control
[9]
  T/C: 123 % of control
[12]
  T/C: 120 % of control

## COc1c2c(cc3oc4ccccc4c(=O)c13)CCCC2
dose: 50.0 mg/kg/injection, schedule: Q01DX005 (ip), vehicle: saline with Tween-80
  T/C: 100 % of control
dose: 100.0 mg/kg/injection, schedule: Q01DX005 (ip), vehicle: saline with Tween-80
  T/C: 96 % of control
dose: 200.0 mg/kg/injection, schedule: Q01DX005 (ip), vehicle: saline with Tween-80
  T/C: 87 % of control

## Cc1ccccc1P(=O)(c1ccccc1)c1ccccc1C
[2]
  T/C: 90 % of control
[4]
  T/C: 96 % of control
[6]
  T/C: 87 % of control

## COc1cc(N(CCCl)CCCl)ccc1/C=N\NC(=O)c1cccnc1
[13]
  T/C: 98 % of control
[14]
  T/C: 97 % of control
[15]
  T/C: 112 % of control

## Nc1cccc(OCCCCCOc2cccc(N)c2)c1
dose: 12.5 mg/kg/injection, schedule: Q01DX009 (ip), vehicle: Klucel (hydroxypropylcellulose) (HPC)
  T/C: 96 % of control
[13]
  T/C: 108 % of control
[14]
  T/C: 94 % of control

## O=C1C(N2CCOCC2)=C(N2CC2)C(=O)C(N2CCOCC2)=C1N1CC1
dose: 1.5 mg/kg/injection, schedule: Q01DX009 (ip), vehicle: saline
  T/C: 105 % of control
dose: 3.0 mg/kg/injection, schedule: Q01DX009 (ip), vehicle: saline
  T/C: 94 % of control
dose: 6.0 mg/kg/injection, schedule: Q01DX009 (ip), vehicle: saline
  T/C: 94 % of control

## CCCCCCCCCCC(=O)N1CCOCC1
[3]
  T/C: 100 % of control
[5]
  T/C: 104 % of control

## COc1cc2c(cc1OC)C(CNC(=O)/C=C/c1ccccc1)C2 (stereo not drawn)
dose: 100.0 mg/kg/injection, schedule: Q01DX001 (ip), vehicle: Klucel (hydroxypropylcellulose) (HPC)
  T/C: 115 % of control
dose: 200.0 mg/kg/injection, schedule: Q01DX001 (ip), vehicle: Klucel (hydroxypropylcellulose) (HPC)
  T/C: 110 % of control
dose: 400.0 mg/kg/injection, schedule: Q01DX001 (ip), vehicle: Klucel (hydroxypropylcellulose) (HPC)
  T/C: 120 % of control

## COC(=O)C(CSC(c1ccccc1)(c1ccccc1)c1ccccc1)NC(=O)C(CSCc1ccccc1)NC(C)=O (stereo not drawn) (Ac-Cys(Bn)-Cys(Trt)-OMe; configuration not given here)
dose: 100.0 mg/kg/injection, schedule: Q01DX009 (ip), vehicle: other
  T/C: 88 % of control
dose: 200.0 mg/kg/injection, schedule: Q01DX009 (ip), vehicle: other
  T/C: 93 % of control
dose: 400.0 mg/kg/injection, schedule: Q01DX009 (ip), vehicle: other
  T/C: 107 % of control

## COCCn1c2nc(=O)n(-c3ccccc3)c(=O)c-2nc2ccccc21
[1]
  T/C: 89 % of control
[2]
  T/C: 114 % of control
[4]
  T/C: 91 % of control

## CC(=O)Oc1ccc(/C=N/NC(N)=S)nc1
dose: 0.18 mg/kg/injection, schedule: Q01DX009 (ip), vehicle: saline with Tween-80
  T/C: 123 % of control
dose: 0.27 mg/kg/injection, schedule: Q01DX009 (ip), vehicle: saline with Tween-80
  T/C: 116 % of control
dose: 0.4 mg/kg/injection, schedule: Q01DX009 (ip), vehicle: saline with Tween-80
  T/C: 176 % of control
dose: 0.6 mg/kg/injection, schedule: Q01DX009 (ip), vehicle: saline with Tween-80
  T/C: 123 % of control
dose: 44.0 mg/kg/injection, schedule: Q01DX009 (ip), vehicle: saline with Tween-80
  T/C: 177 % of control
dose: 66.0 mg/kg/injection, schedule: Q01DX009 (ip), vehicle: saline with Tween-80
  T/C: 200 % of control
[6]
  T/C: 177 % of control and 220 % of control
[7]
  T/C: 107 % of control
dose: 150.0 mg/kg/injection, schedule: Q01DX009 (ip), vehicle: saline with Tween-80
  T/C: 90 % of control
[8]
  T/C: 105 % of control
[9]
  T/C: 111 % of control
[12]
  T/C: 115 % of control

## C=C1C(=O)O[C@@H]2/C=C(\CO)CC/C=C(\C)C[C@H](OC(=O)C(C)CO)[C@@H]12 (stereo partly drawn)
dose: 2.75 mg/kg/injection, schedule: Q01DX009 (ip), vehicle: alcohol
  T/C: 118 % of control

## Nc1nc(N)c2cc(S(=O)(=O)c3ccccc3)ccc2n1
[4]
  T/C: 92 % of control

## CSc1ccc(OC(=O)Nc2ccccc2F)cc1
[5]
  T/C: 90 % of control
[7]
  T/C: 100 % of control
[9]
  T/C: 109 % of control

## Cc1ccccc1C1(c2ccccc2C)OC(=O)c2ccccc21
[15]
  T/C: 90 % of control
dose: 100.0 mg/kg/injection, schedule: Q04DX003 (ip), vehicle: Klucel (hydroxypropylcellulose) (HPC)
  T/C: 95 % of control
dose: 200.0 mg/kg/injection, schedule: Q01DX009 (ip), vehicle: Klucel (hydroxypropylcellulose) (HPC)
  T/C: 104 % of control
dose: 200.0 mg/kg/injection, schedule: Q04DX003 (ip), vehicle: Klucel (hydroxypropylcellulose) (HPC)
  T/C: 91 % of control
dose: 400.0 mg/kg/injection, schedule: Q01DX009 (ip), vehicle: Klucel (hydroxypropylcellulose) (HPC)
  T/C: 90 % of control
dose: 400.0 mg/kg/injection, schedule: Q04DX003 (ip), vehicle: Klucel (hydroxypropylcellulose) (HPC)
  T/C: 87 % of control

## CCCCCCCC/C=C\CCCCCCCC(=O)OCCCCCCCCCCCCCCC
dose: 100.0 mg/kg/injection, schedule: Q04DX003 (ip), vehicle: saline
  T/C: 100 % of control
dose: 200.0 mg/kg/injection, schedule: Q04DX003 (ip), vehicle: saline
  T/C: 100 % of control
dose: 400.0 mg/kg/injection, schedule: Q04DX003 (ip), vehicle: saline
  T/C: 100 % of control

## Cc1ccc(C(CC(=O)O)CC(=O)O)c(O)c1
dose: 100.0 mg/kg/injection, schedule: Q01DX009 (ip), vehicle: gum acacia
  T/C: 100 % of control
dose: 100.0 mg/kg/injection, schedule: Q04DX003 (ip), vehicle: gum acacia
  T/C: 111 % of control
dose: 200.0 mg/kg/injection, schedule: Q01DX009 (ip), vehicle: gum acacia
  T/C: 103 % of control
dose: 200.0 mg/kg/injection, schedule: Q04DX003 (ip), vehicle: gum acacia
  T/C: 103 % of control
dose: 400.0 mg/kg/injection, schedule: Q01DX009 (ip), vehicle: gum acacia
  T/C: 89 % of control
dose: 400.0 mg/kg/injection, schedule: Q04DX003 (ip), vehicle: gum acacia
  T/C: 88 % of control

## C=CCC(CC)C(=O)O (stereo not drawn)
dose: 50.0 mg/kg/injection, schedule: Q01DX009 (ip), vehicle: saline
  T/C: 100 % of control
dose: 100.0 mg/kg/injection, schedule: Q01DX009 (ip), vehicle: saline
  T/C: 104 % of control
